Measured values reported in US20040228844A1, “Method for controlling harmful plant-parasitic nematodes” (priority 2003, published 2004).

Columns and labels:
Meloidogyne incognita [1] = experiment: Test Example 2: gall control on cucumber seedlings in nematode-infested soil; type: in vivo; settings: 20 kg /1000 m^2, 32 days after transplantation, (C−S)×100/C
Method: To 3 kg of the Meloidogyne incognita-infested soil was applied each (100 mL) of the test solutions diluted at given concentrations and then the resulting soil was thoroughly mixed.
The gall control value was calculated by the following equation:
Gall control value=(C−S)×100/C
wherein C is an average gall number per plant in a non-treated group, and S is an average gall number per plant in a treated group.

Meloidogyne incognita [2] = experiment: Test Example 1: root-knot damage of cucumber seedlings in nematode-infested soil; settings: 20 kg per 1000 m^2, soil mixing, 50 days after transplantation, scale 0 (no root-knots) to 5 (dead), average per 10 plants
Method: To 5 kg of nematode-infested soil (nematode density: 2255 nematodes per 20 g (investigation method: Bellman's method)) in which Meloidogyne incognita seriously grew was applied each (100 mL) of the test solutions diluted at given concentrations: and then the resulting soil was thoroughly mixed. […] (diameter: about 3 mm), 500 g of each of the soil to which each test solution was applied and mixed was placed. Cucumber seedlings (14 days after sowing, 2 plants per cup, 5 replications) were transplanted in the cup, which contained each treated soil. After transplantation, the plants were left in a glass greenhouse.
The degree of root-knot damages was evaluated according to the following criteria:
5: The plant is withered and dead due to parasitism of nematodes.
4: A number of root-knots, which range to form-large root-knots, are observed on the entire roots.
3: Root-knots are observed on the entire roots, and large root-knots being partly formed.
2: Formation of root-knots is partly observed on the root, and some of them ranging, but no large root-knot is observed.
1: A little formation of root-knots is observed.
0: No formation of root-knots is found.

CSCC[C@H](N)C(=O)O [Component A Agent, methionine]
Gall Control Value (Meloidogyne incognita [1]): 44
Average Degree of Root-Knots Damages (Meloidogyne incognita [2]): 3.2
